Reference: patent US20220062371A1, “LIGAND-DRUG-CONJUGATES AS SUBSTRATES FOR SELECTIVE CLEAVAGE BY THE EXOPEPTIDASE ACTIVITY OF CATHEPSIN B” (DEBIOPHARM RESEARCH & MANUFACTURING S.A., priority 2017, published 2022)
Where two headings read alike, the source gives them in different places. Non-standard residues stand in square brackets, D forms with d. Residues, ends and D or L forms follow the SMILES beside them. Groups on a side chain read outwards from the residue. *: point of attachment. DM1Mal(CH2)2CO = COc1cc2cc(c1Cl)N(C)C(=O)C[C@H](OC(=O)[C@H](C)N(C)C(=O)CCSC1CC(=O)N(CCC(=O)*)C1=O)[C@]1(C)O[C@H]1[C@H](C)[C@@H]1C[C@@](O)(NC(=O)O1)[C@H](OC)/C=C/C=C(\C)C2; Camptothecin(20S-OCO) = CC[C@@]1(OC(=O)*)C(=O)OCc2c1cc1n(c2=O)Cc2cc3ccccc3nc2-1; X1 = CC[C@@]1(O*)C(=O)OCc2c1cc1n(c2=O)Cc2cc3ccccc3nc2-1; X2 = CC(=O)N[C@@H](CSC1CC(=O)N(CCC(=O)*)C1=O)C(=O)O; Dolaproine = CO[C@@H]([C@@H]1CCCN1)[C@@H](C)C(=O)O; Dil = CC[C@H](C)[C@H](NC)[C@@H](CC(=O)O)OC; NMe2Val = CC(C)[C@@H](C(=O)*)N(C)C; PEG5 = NCCOCCOCCOCCOCCOCCC(=O)O; PEG4 = NCCOCCOCCOCCOCCC(=O)O; Dab = NCC[C@H](N)C(=O)O; Dap = NC[C@H](N)C(=O)O; Sar = CNCC(=O)O

Target: T1, recombinant human Cathepsin B (Homo sapiens, UniProt P07858)
T1 construct: purchased R&D Systems (Bio-Techne AG) 953-CY-010
Experiment: Recombinant human Cathepsin B-induced cleavage (in vitro enzymatic cleavage assay, UHPLC-MS/MS)
Type: biochemical
Conditions: for half-life at 10 μM: human; for Ratio (T1/2 Compound/T1/2 Reference): reference Cys-MC-Val-Cit-PABC-MMAF
Method: Cat B-induced cleavage of the compounds of the present invention was evaluated according to the in vitro enzymatic cleavage assay using recombinant human Cathepsin B and UHPLC-MS/MS analysis as described below.
Reference compounds Cys-MC-Val-Cit-PABC-MMAF and MMAF were used as positive controls.
The in vitro enzymatic assay was conducted at 37° C. with the test compounds at a concentration of 10 μM (2.5 μM when the test compound is an antibody-drug conjugate) in the presence of activated recombinant human Cathepsin B enzyme at 2 μg/mL in a 25 mM MES buffer pH 5.0. The enzymatic cleavage reaction was stopped for each defined time point by mixing an equal volume of acetonitrile+0.1% FA containing an internal standard (warfarine at 8 μM).
Analysis was conducted using a Waters Acquity UPLC System coupled to a Waters Xevo TQ triple quad mass spectrometer. UHPLC was conducted depending on the test compounds with a BEH C8 1.7 μm 100×2.1 mm or BEH C18 1.7 μm 50×2.1 mm or HSS T3 1.7 μm 50×2.1 mm columns heated at 45° C. or 50° C. and fitted with 2 μm insert filter pre-columns (available from Waters), and solvent systems A1 (H2O+0.1% FA) and B1 (acetonitrile+0.1% FA) at a flow rate of 0.6 mL/min and a 10-95% gradient of B1 over 1.9 min.
MS/MS was performed using electrospray ionization (ESI) interface in positive mode and specific MRM transitions for each tested compound.

[1] = pH 5, 10 μM test compound, Cathepsin B 2 μg/mL, 25 mM MES buffer pH 5.0, 37° C., read-out: T1/2 Compound

Q: How did the half-life at 10 μM [1] turn out when CC[C@H](C)[C@@H]([C@@H](CC(=O)N1CCC[C@H]1[C@H](OC)[C@@H](C)C(=O)N[C@@H](Cc1ccccc1)C(=O)N[C@@H](CCCNC(=N)N)C(=O)N[C@@H](CCCCNC(=O)CCOCCOCCOCCOCCOCCNC(=O)CCN1C(=O)CC(SC[C@H](NC(C)=O)C(=O)O)C1=O)C(=O)N[C@@H](Cc1ccccc1)C(=O)O)OC)N(C)C(=O)[C@@H](NC(=O)[C@H](C(C)C)N(C)C)C(C)C (stereo partly drawn) [Compound 1, AF-Arg-Lys(PEG4-Mal-Cys-Ac)-Phe-OH] (NMe2Val-V[Dil][Dolaproine]FRK([PEG5-X2])F-OH) was run?
A: 1.5 min

Q: And the “Ratio (T1/2 Compound/T1/2 Reference)” value?
A: 0.12

Q: With CC[C@H](C)[C@@H]([C@@H](CC(=O)N1CCC[C@H]1[C@H](OC)[C@@H](C)C(=O)N[C@@H](Cc1ccccc1)C(=O)N[C@@H](CCCNC(=N)N)C(=O)N[C@@H](Cc1ccccc1)C(=O)N[C@@H](CCCCNC(=O)CCOCCOCCOCCOCCNC(=O)CCN1C(=O)CC(SC[C@H](NC(C)=O)C(=O)O)C1=O)C(=O)O)OC)N(C)C(=O)[C@@H](NC(=O)[C@H](C(C)C)N(C)C)C(C)C (stereo partly drawn) [Compound 3, AF-Arg-Phe-Lys(PEG4-Mal-Cys-Ac)-OH] (NMe2Val-V[Dil][Dolaproine]FRFK([PEG4-X2])-OH) as the compound, how does the half-life at 10 μM [1] read?
A: 1.4 min

Q: And the “Ratio (T1/2 Compound/T1/2 Reference)” value?
A: 0.11

Q: How did the “Cat B-induced cleavage, in words” value turn out when CC[C@@]1(OC(=O)CN(C)C(=O)CC[C@H](NC(=O)[C@H](CCCNC(=N)N)NC(=O)[C@H](Cc2ccccc2)NC(=O)CCOCCOCCOCCOCCOCCNC(=O)[C@@H](N)CCCNC(=N)N)C(=O)N[C@@H](Cc2ccccc2)C(=O)O)C(=O)OCc2c1cc1n(c2=O)Cc2cc3ccccc3nc2-1 [Compound 8, Arg-PEG4-Phe-Arg-Glu(Sar-OCPT)-Phe-OH] (H-R[PEG5]FRE([Sar-X1])F-OH; N-terminus assumed) was run?
A: rapidly cleaved

Q: What about the half-life at 10 μM [1] of the same compound?
A: 2.2 min

Q: And the “Ratio (T1/2 Compound/T1/2 Reference)” value?
A: 0.19

Q: Which half-life at 10 μM [1] does the source give for CC[C@@]1(OC(=O)NC[C@H](NC(=O)[C@H](CCCNC(=N)N)NC(=O)[C@H](Cc2ccccc2)NC(=O)CCOCCOCCOCCOCCOCCNC(=O)[C@@H](N)CCCNC(=N)N)C(=O)N[C@@H](Cc2ccccc2)C(=O)O)C(=O)OCc2c1cc1n(c2=O)Cc2cc3ccccc3nc2-1 [Compound 9, Arg-PEG4-Phe-Arg-Dap(CO-CPT)-Phe-OH] (H-R[PEG5]FR[Dap](Camptothecin(20S-OCO))F-OH; N-terminus assumed) here?
A: 4.5 min

Q: And the “Ratio (T1/2 Compound/T1/2 Reference)” value?
A: 0.63

Q: What does the source list for CC[C@@]1(OC(=O)NCC[C@H](NC(=O)[C@H](CCCNC(=N)N)NC(=O)[C@H](Cc2ccccc2)NC(=O)CCOCCOCCOCCOCCOCCNC(=O)[C@@H](N)CCCNC(=N)N)C(=O)N[C@@H](Cc2ccccc2)C(=O)O)C(=O)OCc2c1cc1n(c2=O)Cc2cc3ccccc3nc2-1 [Compound 10, Arg-PEG4-Phe-Arg-Dab(CO-CPT)-Phe-OH] (H-R[PEG5]FR[Dab](Camptothecin(20S-OCO))F-OH; N-terminus assumed)?
A: half-life at 10 μM [1]: 0.9 min; Ratio (T1/2 Compound/T1/2 Reference): 0.1

Q: CC[C@@]1(OC(=O)OC[C@H](NC(=O)[C@H](CCCNC(=N)N)NC(=O)[C@H](Cc2ccccc2)NC(=O)CCOCCOCCOCCOCCOCCNC(=O)[C@@H](N)CCCNC(=N)N)C(=O)N[C@@H](Cc2ccccc2)C(=O)O)C(=O)OCc2c1cc1n(c2=O)Cc2cc3ccccc3nc2-1 [Compound 11, Arg-PEG4-Phe-Arg-Ser(CO-CPT)-Phe-OH] (H-R[PEG5]FRS(Camptothecin(20S-OCO))F-OH; N-terminus assumed) was tested. Which half-life at 10 μM [1] did it give?
A: 2.2 min

Q: And the “Ratio (T1/2 Compound/T1/2 Reference)” value?
A: 0.2

Q: How did the half-life at 10 μM [1] turn out when COc1cc2cc(c1Cl)N(C)C(=O)C[C@H](OC(=O)[C@H](C)N(C)C(=O)CCSC1CC(=O)N(CCC(=O)NCCCC[C@H](NC(=O)[C@H](CCCCN)NC(=O)[C@H](Cc3ccccc3)NC(=O)CCOCCOCCOCCOCCNC(=O)CCN3C(=O)CC(SC[C@H](NC(C)=O)C(=O)O)C3=O)C(=O)N[C@@H](Cc3ccccc3)C(=O)O)C1=O)[C@]1(C)O[C@H]1[C@H](C)[C@@H]1C[C@@](O)(NC(=O)O1)[C@H](OC)/C=C/C=C(\C)C2 (stereo partly drawn) [Compound 12, Ac-Cys-Mal-PEG4-Phe-Lys-Lys(Mal-DM1)-Phe-OH] ({X2-PEG4}-FKK(DM1Mal(CH2)2CO)F-OH) was run?
A: 1.5 min

Q: And the half-life at 10 μM (pH 5, text and figure legends, 10 μM test compound, read-out: t1/2 (Exo-Cat B-induced drug release study))?
A: 1.53 min
